Data as given in US10329324B2 (viDA Therapeutics Inc., priority 2013, dated 2019).
Structures can show the parent of a compound that is named as a salt. Where two headings read alike, the source gives them in different places.

Columns and labels:
[1] = target: T1, human Granzyme B (hGzmB) (Homo sapiens, UniProt P10144); assay: Human Granzyme B enzymatic inhibition assay (fluorogenic, kinetic); type: biochemical; conditions: activity codes, Table 7; read-out: IC50 Activity Range
T1 construct: purchased Froelich Lab, Northshore University Health Systems Research Institute, Evanston, Ill., USA
Method in brief: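 Human Granzyme B preincubated with compound for 30 min total (5 min shaking, 20 min bench, then reaction temperature). Fluorogenic substrate added and read kinetically, 25 cycles at 1-min intervals. Percent inhibition at one or two concentrations or 8–12-point 3-fold dose response from 20 uM, replicates, with IC50 by non-linear regression.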

[2] = Kinetic solubility determination in PBS; type: physicochemical; conditions: phosphate buffered saline (PBS 1×), 21 °C, pH 7.4, aqueous buffer, kinetic from dmso stock, PBS 1X pH 7.4, 2.0% DMSO, 24 hour incubation at ambient temperature
Method in brief: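 DMSO stocks were diluted into PBS (1×) pH 7.4 to 2.0% final DMSO and a maximum theoretical concentration of typically 200 μM. After 24 hour incubation at ambient temperature (20.5-21.7° C.), samples were vacuum filtered. The filtrate was quantified by chemiluminescent nitrogen detection against a nitrogen calibration curve, with background-corrected values given in μM and μg/mL.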

[3] = target: GzmB (Homo sapiens, UniProt P10144); assay: Inhibition of fibronectin cleavage by GzmB; type: biochemical; conditions: 20 nM granzyme B, labeled fibronectin; for inhibition at 0.62 µM: 0.62 uM inhibitor, read-out: Percent Inhibition at Inhibitor Concentration 0.62 uM; for inhibition at 5.56 µM: 5.56 uM inhibitor, read-out: Percent Inhibition at Inhibitor Concentration 5.56 uM; for inhibition at 50 µM: 50 uM inhibitor, read-out: Percent Inhibition at Inhibitor Concentration 50 uM
Procedure: Black, 96 well high-binding assay plates (Griener Bio-one) were treated overnight at 4° C. with 40 uL of 8 ug/mL Hilyte Fluor 488 labeled Fibronectin (Cytoskeleton, Inc). After fibronectin coating, plates were washed 3 times in buffer (20 mM Tris-HCl, pH 7.4, 20 mM NaCl) then once with granzyme B assay buffer (50 mM HEPES, pH 7.5, 0.1% CHAPS). After washing, 50 uL of granzyme B assay buffer was added to each fibronectin-coated well. In a separate non-binding 96 well assay plate 5 uL of 20× inhibitor serial dilution stocks were added to 45 uL of 2.22×GzmB mix to establish inhibition (enzyme/inhibitor mixes were all prepared in granzyme B assay buffer and were incubated first at room temperature for 20 minutes, then at 30° C. for another 10 minutes). After incubation, 50 uL of this 2× enzyme/inhibitor mix was added to the corresponding coated well to initiate fibronectin cleavage (20 nM final granzyme B concentration, 8-point inhibitor dilution series starting at 50 uM). The assay was conducted at 30° C. in the TECAN plate reader (TECAN INFINITE® M1000 Pro), which was programmed to monitor the kinetic fluorescence polarization signal (filter set Ex/Em 470 nm/527 nm) with readings taken every minute, for 1 hour. Proteolytic activity was evaluated as the rate of fluorescence enhancement in the parallel emission over the linear range of the reaction. % Inhibition values were calculated from assay controls and the resulting date is shown in Table 8.

[4] = read-out: Solubility in aqueous PBS Buffer (1X, pH 7.4)
[5] = read-out: Solubility in aqueous PBS Buffer (1X, pH 7.4), ug/mL

T1 sequence (P10144 21-247): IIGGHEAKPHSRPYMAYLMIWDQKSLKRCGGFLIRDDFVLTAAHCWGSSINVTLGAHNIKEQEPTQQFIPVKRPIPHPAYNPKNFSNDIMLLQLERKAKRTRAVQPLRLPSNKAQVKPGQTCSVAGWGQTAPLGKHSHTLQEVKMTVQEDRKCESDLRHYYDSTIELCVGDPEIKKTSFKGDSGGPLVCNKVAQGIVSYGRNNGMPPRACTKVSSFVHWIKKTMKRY
Chain of GzmB (P10144 21-247): as above

Structure (SMILES) | IC50 [1] | solubility at 24 h [2, 4] | solubility at 24 h [2, 5] | inhibition at 0.62 µM [3] | inhibition at 5.56 µM [3] | inhibition at 50 µM [3]
CC[C@H](C)[C@H](NC(=O)CCC(=O)O)C(=O)NCC(=O)N1c2ccccc2C[C@H]1C(=O)NCc1nn[nH]n1 [Example A13, 3-{[(1S,2S)-2-Methyl-1-({2-Oxo-2-[(2S)-2-[(2H-1,2,3,4-Tetrazol-5-Ylmethyl)Carbamoyl]-2,3-Dihydro-1H-Indol-1-Yl]Ethyl}Carbamoyl)Butyl]Carbamoyl}Propanoic Acid] | < 100 nM | > 750 µM | > 386 µg/mL | 11% | 52% | 82%
CC[C@H](C)[C@H](NC(=O)Cc1csc2ccccc12)C(=O)NCC(=O)N1c2ccccc2C[C@H]1C(=O)NCc1nn[nH]n1 [Example A27, (2S)-1-{2-[(2S,3S)-2-[2-(1-Benzothiophen-3-Yl)Acetamido]-3-Methylpentanamido]Acetyl}-N-(2H-1,2,3,4-Tetrazol-5-Ylmethyl)-2,3-Dihydro-1H-Indole-2-Carboxamide] | < 100 nM | 53 µM | 31 µg/mL | 57% | 96% | 102%
CC[C@H](C)[C@H](NC(=O)Cc1nn[nH]n1)C(=O)NCC(=O)N1c2ccccc2C[C@H]1C(=O)NCc1nn[nH]n1 [Example A28, (2S)-1-{2-[(2S,3S)-3-Methyl-2-[2-(2H-1,2,3,4-Tetrazol-5-Yl)Acetamido]Pentanamido]Acetyl}-N-(2H-1,2,3,4-Tetrazol-5-Ylmethyl)-2,3-Dihydro-1H-Indole-2-Carboxamide] | < 100 nM | > 750 µM | > 393 µg/mL | 45% | 79% | 98%
O=C(O)CCC(=O)N[C@H](C(=O)NCC(=O)N1c2ccccc2C[C@H]1C(=O)NCc1nn[nH]n1)c1cccs1 [Example C24, 3-{[(R)-({2-Oxo-2-[(2S)-2-[(2H-1,2,3,4-Tetrazol-5-Ylmethyl)Carbamoyl]-2,3-Dihydro-1H-Indol-1-Yl]Ethyl}Carbamoyl)(Thiophen-2-Yl)Methyl]Carbamoyl}Propanoic Acid] | 100 to 1000 nM | > 750 µM | > 405 µg/mL |  |  | 
CC[C@H](C)[C@H](NC(=O)Cc1ccccc1)C(=O)NCC(=O)N1c2cc(NC(C)=O)ccc2C[C@H]1C(=O)NCc1nn[nH]n1 [Example C27, (2S)-6-Acetamido-1-{2-[(2S,3S)-3-Methyl-2-(2-Phenylacetamido)Pentanamido]Acetyl}-N-(2H-1,2,3,4-Tetrazol-5-Ylmethyl)-2,3-Dihydro-1H-Indole-2-Carboxamide] | 100 to 1000 nM | > 750 µM | > 442 µg/mL |  |  | 
CC[C@H](C)[C@H](NC(=O)Cc1ccccc1)C(=O)NCC(=O)N1c2ccc(N)cc2C[C@H]1C(=O)NCc1nn[nH]n1 [Example C32, (2S)-5-Amino-1-{2-[(2S,3S)-3-Methyl-2-(2-Phenylacetamido)Pentanamido]Acetyl}-N-(2H-1,2,3,4-Tetrazol-5-Ylmethyl)-2,3-Dihydro-1H-Indole-2-Carboxamide Hydrochloride] | 100 to 1000 nM | > 750 µM | > 438 µg/mL |  |  | 
